This passage reports IC50 results from patent US12344597B2, “Alkoxy-substituted pyridinyl derivatives as LPA1 receptor antagonists and their use in the treatment of fibrosis” (IDORSIA PHARMACEUTICALS LTD, priority 2018, dated 2025).

This assay deals with human LPA1 receptor (Homo sapiens (Human), UniProt Q92633). As to the kind of experiment: Beta-arrestin recruitment assay to determine IC50 values for human LPAR1. It is filed as cell-based. Particulars: antagonist mode, Tango EDG2-bla U2OS cells, LPA 18:1 500 nM final. A digest of the protocol: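 Antagonist IC50 = concentration giving 50% inhibition of maximal LPA response. Read-out is beta-lactamase reporter activity after arrestin-protease recruitment in U2OS cells bearing LPA1-TEV-Gal4-VP16 construct; cells pre-incubated 20 h, 37 °C, 5% CO2.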
human LPA1 receptor, sequence (Q92633 whole entry, the tested form may be a part): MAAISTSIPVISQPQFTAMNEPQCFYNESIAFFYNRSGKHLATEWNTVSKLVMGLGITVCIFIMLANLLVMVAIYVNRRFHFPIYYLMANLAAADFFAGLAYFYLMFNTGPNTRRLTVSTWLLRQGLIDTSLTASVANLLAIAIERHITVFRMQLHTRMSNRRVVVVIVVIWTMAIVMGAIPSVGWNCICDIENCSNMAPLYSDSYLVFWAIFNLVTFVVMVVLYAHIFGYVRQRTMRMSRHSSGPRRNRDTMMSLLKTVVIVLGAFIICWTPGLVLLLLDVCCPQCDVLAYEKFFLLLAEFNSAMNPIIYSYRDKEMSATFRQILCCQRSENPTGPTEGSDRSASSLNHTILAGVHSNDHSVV
As to `COC(=O)c1ccc(N2CC(C(=O)Nc3ccc(C)nc3OC(F)F)(c3ccccc3C(C)C)C2)nn1` [Ex 18-6, methyl 6-(3-((2-(difluoromethoxy)-6-methylpyridin-3-yl)carbamoyl)-3-(2-isopropylphenyl)azetidin-1-yl)pyridazine-3-carboxylate], the IC50 (commonly the concentration that inhibits the measured activity by half) is 10 nM.

As for `Cc1ccc(NC(=O)C2(c3ccccc3C(C)C)CN(C(=O)CNCC3(C(=O)O)CC3)C2)c(OC(F)F)n1` [Ex 46, 1-(((2-(3-((2-(difluoromethoxy)-6-methylpyridin-3-yl)carbamoyl)-3-(2-isopropylphenyl)azetidin-1-yl)-2-oxoethyl)amino)methyl)cyclopropane-1-carboxylic acid], half-maximal inhibition (IC50) required 100 nM. This IC50 lies about 10-fold higher than the previous one.

`Cc1ccc(NC(=O)C2(c3ccccc3C(C)C)CN(CC(C)(C)CC(=O)O)C2)c(OC(F)F)n1` [Ex 11-33, 4-(3-((2-(difluoromethoxy)-6-methylpyridin-3-yl)carbamoyl)-3-(2-isopropylphenyl)azetidin-1-yl)-3,3-dimethylbutanoic acid] showed a half-maximal inhibitory concentration (IC50) of 8 nM. Against the preceding compound, the IC50 is about 12-fold lower.

`Cc1ccc(NC(=O)C2(c3ccccc3C(C)C)CN(c3cnc(C4(C(=O)O)CC4)nc3)C2)c(OC(F)F)n1` [Ex 18-17, 1-(5-(3-((2-(difluoromethoxy)-6-methylpyridin-3-yl)carbamoyl)-3-(2-isopropylphenyl)azetidin-1-yl)pyrimidin-2-yl)cyclopropane-1-carboxylic acid] returned an IC50 of 8 nM.

The compound `CCOC(=O)C1(NC(=O)N2CC(C(=O)Nc3ccc(C)nc3OC(F)F)(c3ccccc3C(C)C)C2)CC1` [Ex 17-10, ethyl 1-(3-((2-(difluoromethoxy)-6-methylpyridin-3-yl)carbamoyl)-3-(2-isopropylphenyl)azetidine-1-carboxamido)cyclopropane-1-carboxylate] had an IC50 of 13 nM.

For `Cc1ccc(NC(=O)C2(c3ccccc3C(C)C)CN(C(=O)CNOCc3ccccc3)C2)c(OC(F)F)n1` [Ex 12-134, 1-((benzyloxy)glycyl)-N-(2-(difluoromethoxy)-6-methylpyridin-3-yl)-3-(2-isopropylphenyl)azetidine-3-carboxamide], it took 6 nM to reach half-maximal inhibition (IC50).

As to `COC(=O)C1(CN2CC(C(=O)Nc3ccc(C)nc3OC(F)F)(c3ccccc3C(C)C)C2)COC1` [Ex 11-90, methyl 3-((3-((2-(difluoromethoxy)-6-methylpyridin-3-yl)carbamoyl)-3-(2-isopropylphenyl)azetidin-1-yl)methyl)oxetane-3-carboxylate], it took 45 nM to reach half-maximal inhibition (IC50).

In turn, `Cc1ccc(NC(=O)C2(c3ccccc3C(C)C)CN(c3ncc(C(=O)O)n3C)C2)c(OC(F)F)n1` [Ex 18-36, 2-(3-((2-(difluoromethoxy)-6-methylpyridin-3-yl)carbamoyl)-3-(2-isopropylphenyl)azetidin-1-yl)-1-methyl-1H-imidazole-5-carboxylic acid] gave an IC50 of 16 nM.

As for `CC(C)c1ccccc1C1(C(=O)Nc2ncc(Br)cc2OC(F)F)CNC1` [Ex 73, N-(5-bromo-3-(difluoromethoxy)pyridin-2-yl)-3-(2-isopropylphenyl)azetidine-3-carboxamide], the midpoint of inhibition, the IC50, lay at 10 nM.

`CCOC(=O)CC1(S(=O)(=O)N2CC(C(=O)Nc3ccc(C)nc3OC(F)F)(c3ccccc3C(C)C)C2)CC1` [Ex 13-13, ethyl 2-(1-((3-((2-(difluoromethoxy)-6-methylpyridin-3-yl)carbamoyl)-3-(2-isopropylphenyl)azetidin-1-yl)sulfonyl)cyclopropyl)acetate] gave an IC50 of 1760 nM.

On to `COC(=O)CNCC(=O)N1CC(C(=O)Nc2ccc(C)nc2OC(F)F)(c2ccccc2C(C)C)C1` [Ex 56, methyl (2-(3-((2-(difluoromethoxy)-6-methylpyridin-3-yl)carbamoyl)-3-(2-isopropylphenyl)azetidin-1-yl)-2-oxoethyl)glycinate], for which half-maximal inhibition (IC50) required 8 nM. This IC50 is about 220-fold lower than that of the compound before.

For `CCOC(=O)c1coc(N2CC(C(=O)Nc3ccc(C)nc3OC(F)F)(c3ccccc3C(C)C)C2)n1` [Ex 18-27, ethyl 2-(3-((2-(difluoromethoxy)-6-methylpyridin-3-yl)carbamoyl)-3-(2-isopropylphenyl)azetidin-1-yl)oxazole-4-carboxylate], half-maximal inhibition (IC50) required 10 nM.

For `Cc1ccc(NC(=O)C2(c3ccccc3C(C)C)CN(C(=O)C3COCCN3)C2)c(OC(F)F)n1` (stereo not drawn) [Ex 12-43, N-(2-(difluoromethoxy)-6-methylpyridin-3-yl)-3-(2-isopropylphenyl)-1-(morpholine-3-carbonyl)azetidine-3-carboxamide], the IC50 amounted to 106 nM.

`Cc1ccc(NC(=O)C2(c3ccccc3C(C)C)CN(C(=O)CC3(C(=O)O)CCOCC3)C2)c(OC(F)F)n1` [Ex 12-122, 4-(2-(3-((2-(difluoromethoxy)-6-methylpyridin-3-yl)carbamoyl)-3-(2-isopropylphenyl)azetidin-1-yl)-2-oxoethyl)tetrahydro-2H-pyran-4-carboxylic acid] returned an IC50 of 15 nM.

For `CCOC(=O)C(F)(F)CC(=O)N1CC(C(=O)Nc2ccc(C)nc2OC(F)F)(c2ccccc2C(C)C)C1` [Ex 12-111, ethyl 4-(3-((2-(difluoromethoxy)-6-methylpyridin-3-yl)carbamoyl)-3-(2-isopropylphenyl)azetidin-1-yl)-2,2-difluoro-4-oxobutanoate], the IC50 is 18 nM.

`CC(C)c1ccccc1C1(C(=O)Nc2ncc(Br)cc2OC(F)F)CN(CCC(C)(C)C(=O)O)C1` [Ex 78-3, 4-(3-((5-bromo-3-(difluoromethoxy)pyridin-2-yl)carbamoyl)-3-(2-isopropylphenyl)azetidin-1-yl)-2,2-dimethylbutanoic acid] returned an IC50 of 13 nM.

For `CC(C)c1ccccc1C1(C(=O)Nc2ncc(Cl)cc2OC(F)F)CN(C(=O)NC2CC2)C1` [Ex 82-1, N3-(5-chloro-3-(difluoromethoxy)pyridin-2-yl)-N1-cyclopropyl-3-(2-isopropylphenyl)azetidine-1,3-dicarboxamide], half-maximal inhibition (IC50) was put at 3 nM.

For the compound `COC(=O)c1ccc(CN2CC(C(=O)Nc3ccc(C)nc3OC(F)F)(c3ccccc3C(C)C)C2)cn1` [Ex 11-52, methyl 5-((3-((2-(difluoromethoxy)-6-methylpyridin-3-yl)carbamoyl)-3-(2-isopropylphenyl)azetidin-1-yl)methyl)picolinate], the IC50 is 79 nM.

Compound `CCN(CC(=O)O)CC(=O)N1CC(C(=O)Nc2ccc(C)nc2OC(F)F)(c2ccccc2C(C)C)C1` [Ex 58, N-(2-(3-((2-(difluoromethoxy)-6-methylpyridin-3-yl)carbamoyl)-3-(2-isopropylphenyl)azetidin-1-yl)-2-oxoethyl)-N-ethylglycine] returned an IC50 of 48 nM.

Compound `Cc1ccc(C(C)C)c(C2(C(=O)Nc3ccc(C)nc3OC(F)F)CNC2)c1` [Ex 34, N-(2-(difluoromethoxy)-6-methylpyridin-3-yl)-3-(2-isopropyl-5-methylphenyl)azetidine-3-carboxamide] returned an IC50 of 142 nM.

Consider `CCOC(=O)c1coc(N2CC(C(=O)Nc3cccnc3OC(F)F)(c3ccccc3C(C)C)C2)n1` [Ex 18-29, ethyl 2-(3-((2-(difluoromethoxy)pyridin-3-yl)carbamoyl)-3-(2-isopropylphenyl)azetidin-1-yl)oxazole-4-carboxylate], for which half-maximal inhibition (IC50) was put at 71 nM.

`Cc1ccc(NC(=O)C2(c3ccccc3C(C)C)CN(C(=O)COCCOCC(=O)O)C2)c(OC(F)F)n1` [Ex 12-107, 2-(2-(2-(3-((2-(difluoromethoxy)-6-methylpyridin-3-yl)carbamoyl)-3-(2-isopropylphenyl)azetidin-1-yl)-2-oxoethoxy)ethoxy)acetic acid]: half-maximal inhibition (IC50) required 150 nM.

`CC(C)c1ccccc1C1(C(=O)Nc2ncc(Cl)cc2OC(F)F)CN(S(N)(=O)=O)C1` [Ex 81-3, N-(5-chloro-3-(difluoromethoxy)pyridin-2-yl)-3-(2-isopropylphenyl)-1-sulfamoylazetidine-3-carboxamide] yielded an IC50 of 2 nM.

Compound `COc1ccc(NC(=O)C2(c3ccccc3C(C)C)CN(C(=O)OC(C)(C)C)C2)c(OC)n1` [Ex 6-1, tert-butyl 3-((2,6-dimethoxypyridin-3-yl)carbamoyl)-3-(2-isopropylphenyl)azetidine-1-carboxylate] gave a 50% inhibitory concentration (IC50) of 605 nM.

`CCNCCN1CC(C(=O)Nc2ccc(C)nc2OC(F)F)(c2ccccc2C(C)C)C1` [Ex 11-63, N-(2-(difluoromethoxy)-6-methylpyridin-3-yl)-1-(2-(ethylamino)ethyl)-3-(2-isopropylphenyl)azetidine-3-carboxamide] yielded an IC50 of 92 nM. Compared with the last compound, the IC50 is about 6.6-fold lower.

Compound `Cc1ccc(NC(=O)C2(c3ccccc3C(C)C)CN(C(=O)[C@H](C)N)C2)c(OC(F)F)n1` [Ex 12-33, 1-(L-alanyl)-N-(2-(difluoromethoxy)-6-methylpyridin-3-yl)-3-(2-isopropylphenyl)azetidine-3-carboxamide] yielded a concentration for half-maximal inhibition (IC50) of 10 nM.

For `Cc1ccc(NC(=O)C2(c3ccccc3C(C)C)CCN(C(=O)Cc3c[nH]nc3O)CC2)c(OC(F)F)n1` [Ex 12-27, N-(2-(difluoromethoxy)-6-methylpyridin-3-yl)-1-(2-(3-hydroxy-1H-pyrazol-4-yl)acetyl)-4-(2-isopropylphenyl)piperidine-4-carboxamide], the midpoint of inhibition, the IC50, lay at 4 nM.

Compound `COC(=O)C1(CNC(=O)N2CC(C(=O)Nc3ccc(C)nc3OC(F)F)(c3ccccc3C(C)C)C2)CC1` [Ex 17-14, methyl 1-((3-((2-(difluoromethoxy)-6-methylpyridin-3-yl)carbamoyl)-3-(2-isopropylphenyl)azetidine-1-carboxamido)methyl)cyclopropane-1-carboxylate] came in with an IC50 of 7 nM.

For the compound `CCCN(CC(=O)O)CC(=O)N1CC(C(=O)Nc2ccc(C)nc2OC(F)F)(c2ccccc2C(C)C)C1` [Ex 42, N-(2-(3-((2-(difluoromethoxy)-6-methylpyridin-3-yl)carbamoyl)-3-(2-isopropylphenyl)azetidin-1-yl)-2-oxoethyl)-N-propylglycine], the IC50 was found to be 7 nM.

`Cc1ccc(NC(=O)C2(c3ccccc3C(C)C)CN(c3cc(F)ccn3)C2)c(OC(F)F)n1` [Ex 18-18, N-(2-(difluoromethoxy)-6-methylpyridin-3-yl)-1-(4-fluoropyridin-2-yl)-3-(2-isopropylphenyl)azetidine-3-carboxamide] displayed an IC50 of 1 nM.
